Reference: patent US6207709A, “N-substituted-2-amino-4-phenyl-4-oxo-butanoic acid compounds having kynurenine-3-hydroxy base inhibitory activity” (Pharmacia & Upjohn S.p.A., priority 1996, dated 2001)
One block for each compound: values may come before it.

What was measured:
[1] = cited from earlier work
neuronal cell cultures = details: relatively low QUIN concentrations; prolonged period of time or in combination with glutamate; cited from earlier work
[2] = system: N-methyl-D-aspartate (NMDA) receptor; details: cited from earlier work
kynurenine-3-hydroxylase = biological target: T1, kynurenine-3-hydroxylase (Rattus norvegicus, UniProt O88867); assay: Kynurenine-3-hydroxylase assay in the rat brain (homogenate); type: biochemical; details: L-kynurenine 50 μM, 60 min incubation, pH 7.5, read-out: IC 50, enzyme inhibition (rat brain)
T1 construct: evaluated in rat brain homogenate; from tissue; host or cells: rat brain homogenate (washed 12000 x g pellet)
T1 sequence (O88867 whole entry): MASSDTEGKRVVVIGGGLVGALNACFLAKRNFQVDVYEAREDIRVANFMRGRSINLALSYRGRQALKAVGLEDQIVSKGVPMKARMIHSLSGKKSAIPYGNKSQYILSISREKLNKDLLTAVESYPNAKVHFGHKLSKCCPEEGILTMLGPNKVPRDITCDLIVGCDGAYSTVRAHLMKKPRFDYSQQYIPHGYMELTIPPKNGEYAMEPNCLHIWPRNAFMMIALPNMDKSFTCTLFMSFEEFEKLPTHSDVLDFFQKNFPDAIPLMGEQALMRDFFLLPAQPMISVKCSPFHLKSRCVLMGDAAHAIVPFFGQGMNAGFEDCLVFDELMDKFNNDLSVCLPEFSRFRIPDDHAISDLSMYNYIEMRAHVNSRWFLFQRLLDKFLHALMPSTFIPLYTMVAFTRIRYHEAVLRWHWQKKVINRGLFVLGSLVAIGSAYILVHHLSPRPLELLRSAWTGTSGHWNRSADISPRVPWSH
Description: (A) Kynurenine-3-hydroxylase assay in the rat brain
Brain was homogenized in ice-cold 0.32 M sucrose and centrifuged at 12000×g for 30 min at 4° C. The pellet was washed three times with 0.32 M sucrose by centrifugation and suspended in 0.14 M KCl in 20 mM K-phosphate buffer at pH 7 (1 g tissue in 2 ml buffer).
The reaction mixture contained: 75 μl of suspended homogenate; 100 μl of substrate solution containing 50 mM K-phosphate buffer pH 7.5, 2 mM MgCl2, 0.4 mM NADPH and 50 μM L-kynurenine (final concentration): 25 μl of different concentrations of inhibitor solutions). The reaction was stopped by addition of 200 μl of 1 M HClO4 after 60 min incubation. L-3-hydroxykynurenine formed was quantified by HPLC with coulometric detection at a working voltage of +0.2 V. The column was a 10 cm C18 reversed phase (3 μm. The mobile phase consisted of 950 ml distilled water, 20 ml acetonitrile, 9 ml triethylamine, 5.9 ml phosphoric acid, 100 mg sodium EDTA and 1.5 g heptanesulfonic acid. The flow rate was 1 ml/min.

[3] = system: ionotropic excitatory aminoacid receptors; details: preferentially acting at the glycine co-agonist site of the NMDA receptor; cited from earlier work

IC50 (kynurenine-3-hydroxylase): 270 nM
Compound: O=C(CC(NC(=O)C(F)(F)F)C(=O)O)c1ccc(F)c(F)c1 (racemic) [FCE 29434, (R,S)-N-trifluoroacetyl-2-amino-4-oxo-4-(3',4'-difluorophenyl)butanoic acid]

IC50 (kynurenine-3-hydroxylase): 240 nM
Compound: O=C(C[C@H](NC(=O)C(F)(F)F)C(=O)O)c1ccc(Cl)c(Cl)c1 [FCE 29435, (S)-N-trifluoroacetyl-2-amino-4-oxo-4-(3',4'-dichlorophenyl)butanoic acid]

Continued, compound first:

Compound: O=C(O)c1cccnc1C(=O)O [QUIN, quinolinic acid]
effect in vivo (in words) [1]: produce convulsions and axon sparing lesions
neurotoxicity in neuronal cell cultures (in words) (neuronal cell cultures): neurotoxic
agonism at NMDA receptor (in words) [2]: highly selective agonist

Compound: O=C(O)c1cc(=O)c2ccccc2[nH]1 [KYNA, kynurenic acid]
antagonism at ionotropic excitatory aminoacid receptors (in words) [3]: broad spectrum antagonist

Compound: O=C(CC(NC(=O)C(F)(F)F)C(=O)O)c1ccc(Cl)c(Cl)c1 (racemic) [FCE 29256, (R,S)-N-trifluoroacetyl-2-amino-4-oxo-4-(3',4'-dichlorophenyl)butanoic acid]
IC50 (kynurenine-3-hydroxylase): 140 nM
